According to PubChem BioAssay (NCI):
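Here, GI50 denotes the concentration required for 50% inhibition of growth. TGI denotes the concentration required for complete inhibition of growth.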

What was measured:
Assay in all cases: DTP human tumour cell line panel, 384-well format
[1] = test system: NCI-H322M lung
[2] = test system: SF-295 CNS
[3] = test system: U251 glioblastoma
[4] = test system: SW-620 colon
[5] = test system: NCI/ADR-RES ovarian
[6] = test system: HT29 colon
[7] = test system: MCF7 breast
[8] = test system: RPMI-8226 leukemia
[9] = test system: HCC-2998 colon
[10] = test system: T-47D breast
[11] = test system: SF-539 CNS
[12] = test system: SNB-75 CNS
[13] = test system: DU-145 prostate
[14] = test system: UACC-62 melanoma
[15] = test system: PC-3 prostate
[16] = test system: SN12C renal
[17] = test system: HL-60(TB) leukemia
[18] = test system: OVCAR-8 ovarian
[19] = test system: A498 renal
[20] = test system: SK-MEL-28 melanoma
[21] = test system: HCT-15 colon
[22] = test system: MALME-3M melanoma
[23] = test system: OVCAR-5 ovarian
[24] = test system: OVCAR-4 ovarian
[25] = test system: COLO 205 colon
[26] = test system: ACHN renal
[27] = test system: HOP-92 NSCLC
[28] = test system: EKVX NSCLC
[29] = test system: HCT-116 colon
[30] = test system: RXF 393 renal
[31] = test system: LOX IMVI melanoma
[32] = test system: MOLT-4 leukemia
[33] = test system: CCRF-CEM leukemia
[34] = test system: NCI-H23 lung
[35] = test system: K-562 leukemia
[36] = test system: BT-549 breast
[37] = test system: NCI-H226 lung
[38] = test system: A549 NSCLC
[39] = test system: HS 578T breast
[40] = test system: OVCAR-3 ovarian
[41] = test system: M14 melanoma
[42] = test system: TK-10 renal
[43] = test system: SK-MEL-5 melanoma
[44] = test system: MDA-MB-231 breast
[45] = test system: KM12 colon
[46] = test system: CAKI-1 renal
[47] = test system: UO-31 renal
[48] = test system: SK-OV-3 ovarian
[49] = test system: HOP-62 NSCLC
[50] = test system: MDA-MB-435 melanoma
[51] = test system: SNB-19 CNS
[52] = test system: 786-0 renal
[53] = test system: MDA-MB-468 breast
[54] = test system: NCI-H522 lung
[55] = test system: NCI-H460 NSCLC
[56] = test system: UACC-257 melanoma
[57] = test system: IGROV1 ovarian
[58] = test system: SF-268 CNS

N#Cc1c(Oc2ccc(F)c(NC(=O)Cc3cccc(C(F)(F)F)c3)c2)ccc2nc(NC(=O)C3CC3)sc12
GI50 [1]: 1330 nM
TGI [1]: > 100000 nM
GI50 [2]: 516 nM
TGI [2]: > 100000 nM
GI50 [3]: 486 nM
TGI [3]: 8260 nM
GI50 [4]: 470 nM
TGI [4]: 8510 nM
GI50 [5]: 1030 nM
TGI [5]: 4650 nM
GI50 [6]: 64.2 nM
TGI [6]: > 100000 nM
GI50 [7]: 717 nM
TGI [7]: > 100000 nM
GI50 [8]: 198 nM
TGI [8]: 847 nM
GI50 [9]: 291 nM
TGI [9]: 7010 nM
GI50 [10]: 1200 nM
TGI [10]: 6700 nM
GI50 [11]: 1070 nM
TGI [11]: 3060 nM
GI50 [12]: 1300 nM
TGI [12]: 4360 nM
GI50 [13]: 2770 nM
TGI [13]: > 100000 nM
GI50 [14]: 15.2 nM
TGI [14]: 106 nM
GI50 [15]: 1420 nM
TGI [15]: > 100000 nM
GI50 [16]: 461 nM
TGI [16]: 4710 nM
GI50 [17]: 80.5 nM
TGI [17]: 914 nM
GI50 [18]: 746 nM
TGI [18]: > 100000 nM
GI50 [19]: 1700 nM
TGI [19]: 5200 nM
GI50 [20]: 16.7 nM
TGI [20]: 68 nM
GI50 [21]: 401 nM
TGI [21]: > 100000 nM
TGI [22]: 30.9 nM
GI50 [23]: 677 nM
TGI [23]: 9850 nM
GI50 [24]: 3640 nM
TGI [24]: > 100000 nM
GI50 [25]: 31.1 nM
TGI [25]: 2640 nM
GI50 [26]: 755 nM
TGI [26]: > 100000 nM
GI50 [27]: 783 nM
TGI [27]: 2250 nM
GI50 [28]: 3800 nM
TGI [28]: 35600 nM
GI50 [29]: 158 nM
TGI [29]: 1850 nM
GI50 [30]: 159 nM
TGI [30]: 1600 nM
GI50 [31]: 41.8 nM
TGI [31]: 992 nM
GI50 [32]: 97.5 nM
TGI [32]: 238 nM
GI50 [33]: 263 nM
TGI [33]: 2970 nM
GI50 [34]: 98.9 nM
TGI [34]: 1260 nM
GI50 [35]: 114 nM
TGI [35]: 300 nM
GI50 [36]: 1320 nM
TGI [36]: > 100000 nM
GI50 [37]: 312 nM
TGI [37]: 4190 nM
GI50 [38]: 1870 nM
TGI [38]: > 100000 nM
GI50 [39]: 698 nM
TGI [39]: 2520 nM
GI50 [40]: 2410 nM
TGI [40]: 82100 nM
GI50 [41]: 12.5 nM
TGI [41]: 117 nM
GI50 [42]: 311 nM
TGI [42]: 3520 nM
GI50 [43]: 17.1 nM
TGI [43]: 1680 nM
GI50 [44]: 78.3 nM
TGI [44]: 2520 nM
GI50 [45]: 1210 nM
TGI [45]: > 100000 nM
GI50 [46]: 1140 nM
TGI [46]: 8630 nM
GI50 [47]: 427 nM
TGI [47]: 2220 nM
GI50 [48]: 1790 nM
TGI [48]: > 100000 nM
GI50 [49]: 1700 nM
TGI [49]: > 100000 nM
GI50 [50]: 62.2 nM
TGI [50]: > 100000 nM
GI50 [51]: 2630 nM
TGI [51]: > 100000 nM
GI50 [52]: 913 nM
TGI [52]: 7150 nM
GI50 [53]: 1060 nM
TGI [53]: 6560 nM
GI50 [54]: 484 nM
TGI [54]: 5650 nM
GI50 [55]: 745 nM
TGI [55]: > 100000 nM
GI50 [56]: 26.6 nM
TGI [56]: 138 nM
GI50 [57]: 434 nM
TGI [57]: 3110 nM
GI50 [58]: 39.5 nM
TGI [58]: 263 nM
